Data taken from US20240226310A1, “Lipid Nanoparticle Therapeutics that Evade the Immune Response” (The Trustees of the University of Pennsylvania, priority 2021, published 2024).

System: pro-inflammatory cytokines
Assay: Pro-inflammatory cytokines in systemic mouse model of inflammation (IV-LPS)
Type: in vivo, mice
[1] = removal of macrophages, LPS-treated mice which received LNP-mRNAs

With `O=P(O)(O)C(Cl)(Cl)P(=O)(O)O` [Clodronate] the systemic pro-inflammatory cytokines/markers (IV treatment, LPS model of systemic inflammation) was “reduces systemic pro-inflammatory markers”, the IL-6 in blood [1] was “significantly lowered” and the “MIP-2 in liver homogenate” value [1] was “significantly lowered”.
